According to patent publication US8889881B2, “Compound having skin-whitening, anti-oxidizing and PPAR activities and medical use therefor” (Pusan National University Industry —University Cooperation …, priority 2011, dated 2014):

Tests used:
[1] = target: T1, PPAR gamma-LBD (Homo sapiens, UniProt P37231); assay: PPAR assay, PPARγ; assay type: binding; settings: sample final concentration 100 μM; positive control rosiglitazone; FIGS. 7 and 8
T1 sequence (P37231 238-503 limits assumed): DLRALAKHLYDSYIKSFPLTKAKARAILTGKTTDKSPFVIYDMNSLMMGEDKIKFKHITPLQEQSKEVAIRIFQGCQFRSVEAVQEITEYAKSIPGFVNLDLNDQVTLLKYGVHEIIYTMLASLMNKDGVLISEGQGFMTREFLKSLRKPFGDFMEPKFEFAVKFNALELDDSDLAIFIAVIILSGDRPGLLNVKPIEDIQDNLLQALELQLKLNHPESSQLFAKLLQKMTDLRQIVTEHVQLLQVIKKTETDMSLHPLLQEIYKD

[2] = target: T2, PPAR alpha-LBD (Homo sapiens, UniProt Q07869); assay: PPAR assay, PPARα; settings: for PPARα activation (competitive activation rate), compared with fenofibrate: sample final concentration 100 μM, positive control fenofibrate, FIGS. 5 and 6; for simultaneous activation of PPARα and PPARγ: summary of the PPARα and PPARγ assays, sample 100 μM
T2 sequence (Q07869 239-466 limits assumed): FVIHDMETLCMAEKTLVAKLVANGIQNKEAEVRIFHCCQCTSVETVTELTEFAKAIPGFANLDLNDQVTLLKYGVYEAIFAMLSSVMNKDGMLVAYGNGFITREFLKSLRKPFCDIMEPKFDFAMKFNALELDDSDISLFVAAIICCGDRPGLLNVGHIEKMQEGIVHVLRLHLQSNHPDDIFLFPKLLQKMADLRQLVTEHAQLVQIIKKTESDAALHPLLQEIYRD

SMILES	PPARγ activation (competitive activation rate), compared with rosiglitazone [1]	melting point [°C]	PPARα activation (competitive activation rate), compared with fenofibrate [2]	simultaneous activation of PPARα and PPARγ [2]
COc1ccc(-c2nc3ccccc3s2)cc1OC [Compound 20, 2-(3,4-dimethoxyphenyl)benzo[d]thiazole]	very excellent PPARγ activation agent compared to rosiglitazone	135 to 137.2	very excellent PPARα activation agent compared to fenofibrate	simultaneously activates PPARα and PPARγ
COc1cc(-c2nc3ccccc3s2)cc(OC)c1OC [Compound 24, 2-(3,4,5-trimethoxyphenyl)benzo[d]thiazole]	very excellent PPARγ activation agent compared to rosiglitazone	149.5 to 151.1	very excellent PPARα activation agent compared to fenofibrate	simultaneously activates PPARα and PPARγ
COc1cc(-c2nc3ccccc3s2)cc(OC)c1O [Compound 25, 4-(benzo[d]thiazol-2-yl)-2,6-dimethoxyphenol]	very excellent PPARγ activation agent compared to rosiglitazone	153.5 to 156.1	very excellent PPARα activation agent compared to fenofibrate	simultaneously activates PPARα and PPARγ
Oc1ccc(-c2nc3cc(C(F)(F)F)ccc3s2)cc1 [Compound 28, 4-(5-(trifluoromethyl)benzo[d]thiazol-2-yl)phenol]	very excellent PPARγ activation agent compared to rosiglitazone	187.2 to 188.9	very excellent PPARα activation agent compared to fenofibrate	simultaneously activates PPARα and PPARγ
COc1cc(-c2nc3cc(C(F)(F)F)ccc3s2)ccc1O [Compound 31, 2-methoxy-4-(5-(trifluoromethyl)benzo[d]thiazol-2-yl)phenol]	very excellent PPARγ activation agent compared to rosiglitazone	155.7 to 159.9	very excellent PPARα activation agent compared to fenofibrate	simultaneously activates PPARα and PPARγ
CCOc1cc(-c2nc3cc(C(F)(F)F)ccc3s2)ccc1O [Compound 32, 2-ethoxy-4-(5-(trifluoromethyl)benzo[d]thiazol-2-yl)phenol]	very excellent PPARγ activation agent compared to rosiglitazone	117 to 117.8	very excellent PPARα activation agent compared to fenofibrate	simultaneously activates PPARα and PPARγ
COc1ccc(-c2nc3cc(C(F)(F)F)ccc3s2)cc1 [Compound 34, 2-(4-methoxyphenyl)-5-(trifluoromethyl)benzo[d]thiazole]	very excellent PPARγ activation agent compared to rosiglitazone	128.8 to 130.1		
CCOc1cc(-c2nc3ccccc3[nH]2)ccc1O [Compound 47, 4-(1H-benzo[d]imidazol-2-yl)-2-ethoxyphenol]	very excellent PPARγ activation agent compared to rosiglitazone		very excellent PPARα activation agent compared to fenofibrate	simultaneously activates PPARα and PPARγ
COc1ccc(-c2nc3ccccc3[nH]2)c(OC)c1 [Compound 52, 2-(2,4-dimethoxyphenyl)-1H-benzo[d]imidazole]	very excellent PPARγ activation agent compared to rosiglitazone		very excellent PPARα activation agent compared to fenofibrate	simultaneously activates PPARα and PPARγ
Oc1ccccc1-c1nc2ccccc2[nH]1 [Compound 53, 2-(1H-benzo[d]imidazol-2-yl)phenol]	very excellent PPARγ activation agent compared to rosiglitazone		very excellent PPARα activation agent compared to fenofibrate	simultaneously activates PPARα and PPARγ
COc1ccc(-c2nc3cc(C(=O)O)ccc3[nH]2)cc1OC [Compound 64, 2-(3,4-dimethoxyphenyl)-1H-benzo[d]imidazole-5-carboxylic acid]	very excellent PPARγ activation agent compared to rosiglitazone		very excellent PPARα activation agent compared to fenofibrate	simultaneously activates PPARα and PPARγ
COc1ccc(-c2nc3cc(C(=O)O)ccc3[nH]2)c(OC)c1 [Compound 65, 2-(2,4-dimethoxyphenyl)-1H-benzo[d]imidazole-5-carboxylic acid]	very excellent PPARγ activation agent compared to rosiglitazone		very excellent PPARα activation agent compared to fenofibrate	simultaneously activates PPARα and PPARγ
O=C(O)c1ccc2[nH]c(-c3ccccc3O)nc2c1 [Compound 66, 2-(2-hydroxyphenyl)-1H-benzo[d]imidazole-5-carboxylic acid]	very excellent PPARγ activation agent compared to rosiglitazone		very excellent PPARα activation agent compared to fenofibrate	simultaneously activates PPARα and PPARγ
COc1cc(-c2nc3cc(C(=O)O)ccc3[nH]2)cc(OC)c1OC [Compound 67, 2-(3,4,5-trimethoxyphenyl)-1H-benzo[d]imidazole-5-carboxylic acid]	very excellent PPARγ activation agent compared to rosiglitazone		very excellent PPARα activation agent compared to fenofibrate	simultaneously activates PPARα and PPARγ
O=C(O)c1ccc2[nH]c(-c3ccc(O)c(Br)c3)nc2c1 [Compound 69, 2-(3-bromo-4-hydroxyphenyl)-1H-benzo[d]imidazole-5-carboxylic acid]	very excellent PPARγ activation agent compared to rosiglitazone		very excellent PPARα activation agent compared to fenofibrate	simultaneously activates PPARα and PPARγ
O=C(O)c1ccc2[nH]c(-c3cc(Br)c(O)c(Br)c3)nc2c1 [Compound 70, 2-(3,5-dibromo-4-hydroxyphenyl)-1H-benzo[d]imidazole-5-carboxylic acid]	very excellent PPARγ activation agent compared to rosiglitazone		very excellent PPARα activation agent compared to fenofibrate	simultaneously activates PPARα and PPARγ
CC(C)(Oc1ccc(-c2nc3ccccc3s2)cc1)C(=O)O [Compound 97, 2-(4-(benzo[d]thiazol-2-yl)phenoxy)-2-methylpropanoic acid]	very excellent PPARγ activation agent compared to rosiglitazone		very excellent PPARα activation agent compared to fenofibrate	simultaneously activates PPARα and PPARγ
O=C(O)c1ccc2[nH]c(-c3ccc(OCc4ccccc4)cc3)nc2c1 [Compound 113, 2-(4-(benzyloxy)phenyl)-1H-benzo[d]imidazole-5-carboxylic acid]	very excellent PPARγ activation agent compared to rosiglitazone		very excellent PPARα activation agent compared to fenofibrate	simultaneously activates PPARα and PPARγ
